Test results: patent US12708622B2, “Methods of treating cancer and inhibiting TYK2 and MEK” (Washington University, priority 2021, dated 2026)

Tests used:
WU-386 MPNST xenograft = assay: MPNST xenograft tumor growth in NRG mice; conditions: WU-386 in NRG mice; daily oral gavage; single agents
WU-386 cells = assay: IncuCyte live cell proliferation assay (percent cell confluence); format: cell-based, human; conditions: 3 days
Description: (§2) To gain further insight into the role of TYK2 in MPNST, the effect of pharmacologic inhibition of TYK2 was examined using IncuCyte Live Cell Imaging experiments for proliferation and cell death assay with YOYO-1 green fluorescent dye.
(§3) MPNST cell lines were plated at 2500 cells/well in 96 well plates in growth media and incubated overnight. […] Cells were imaged every 1-2 hours by IncuCyte Zoom Live-Cell Analysis System (Essen Bioscience, Sartorius, Ann Arbor, MI). Cell proliferation was determined as percent confluence from phase images and was analyzed by IncuCyte image analysis software (Sartorius). […] IC50 values were calculated in GraphPad Prism version 9 (GraphPad Software, San Diego, CA).

JH-2-002 cells = assay: as above
Description: as §2
(§4) MPNST cell lines were plated at 2500 cells/well in 96 well plates in growth media and incubated overnight. […] Cells were imaged every 1-2 hours by IncuCyte Zoom Live-Cell Analysis System (Essen Bioscience, Sartorius, Ann Arbor, MI). Cell proliferation was determined as percent confluence from phase images and was analyzed by IncuCyte image analysis software (Sartorius). For cell death assays, 50 nmol/L YOYO-1 green fluorescent dye (Thermo Fisher) was added to treatment medium, and apoptosis was calculated as green objects normalized to the confluency factor and the initial timepoint. IC50 values were calculated in GraphPad Prism version 9 (GraphPad Software, San Diego, CA).

JW23.3 cells [1] = assay: as above; format: cell-based, murine
Description: as §2, §4

JAK1-3 = conditions: at clinically relevant doses; cited from earlier work
WU-356 cells = assay: IncuCyte live cell proliferation assay (percent cell confluence); format: cell-based, human; conditions: 3 days
Description: as §2, §3

[2] = test system: JW23.3 MPNST xenograft tumors; assay: MPNST tumor growth in immunocompetent C57BL6 mice; conditions: JW23.3 in immunocompetent mice; daily oral gavage; 1.5 mg/kg deucravacitinib, 30 mg/kg mirdametinib (FIG. 10 legend)
JW23.3 cells [3] = assay: IncuCyte cell death assay with YOYO-1 green fluorescent dye (apoptosis); conditions: 72 hours
Description: as §2, §4

2-009 cells [4] = assay: IncuCyte assay with YOYO-1 green fluorescence (apoptosis); format: cell-based; conditions: over 3 days
Description: (§1) Cell confluence and apoptosis were analyzed by IncuCyte live cell imaging assays. Drug combination synergy was calculated using Synergy Finder software.

2-009 cells [5] = assay: IncuCyte live cell imaging assay (cell confluence); format: cell-based; conditions: over 3 days
Description: as §1

[6] = Mouse body weight and health in the MPNST tumor models; set-up: species or system mice; conditions: in vivo
Description: . […] Mouse body weight, an indicator of health, was measured 2-3 times per week.

[7] = test system: JW23.3, JH-2-002, WU-356 and WU-386 cells; assay: IncuCyte cell confluence IC50 across the MPNST cell line panel; format: cell-based, murine and human; conditions: 72 h, 3 days, read-out: IC50 for inhibition of cell confluence, range over cell lines
Description: as §3

| Structure (SMILES) | tumor size (WU-386 MPNST xenograft) | proliferation (cell confluence) (WU-386 cells; WU-386 cells) | percent cell confluence / proliferation (JH-2-002 cells; JH-2-002 cells, 72 hours) | IC50 (JW23.3 cells [1]; Mus musculus, 72 h, read-out: IC50 for inhibition of cell confluence) [nM] | block of JAK1-3 (JAK1-3) | proliferation (cell confluence) (WU-356 cells; WU-356 cells) | tumor volume relative to vehicle control [2] | apoptosis (JW23.3 cells [3]) | apoptosis (2-009 cells [4]) | cell confluence (2-009 cells [5]) | percent cell confluence (JW23.3 cells [1]; JW23.3 cells, 72 hours) | IC50 (WU-386 cells; Homo sapiens, 72 h, WU-386 MPNST cell line, IncuCyte, read-out: IC50 for inhibition of cell confluence) [nM] | IC50 (JH-2-002 cells; Homo sapiens, 72 h, read-out: IC50 for inhibition of cell confluence) [nM] | mouse body weight / adverse health effects [6] | IC50 [7] [nM] | IC50 (WU-356 cells; Homo sapiens, 72 h, WU-356 MPNST cell line, IncuCyte, read-out: IC50 for inhibition of cell confluence) [nM] |
| --- | --- | --- | --- | --- | --- | --- | --- | --- | --- | --- | --- | --- | --- | --- | --- | --- |
| [2H]C([2H])([2H])NC(=O)c1nnc(NC(=O)C2CC2)cc1Nc1cccc(-c2ncn(C)n2)c1OC [deucravacitinib] | non-significant trend toward decreased tumor size | inhibited proliferation | inhibited proliferation | 6760 | does not block JAK1-3 at clinically relevant doses | inhibited proliferation | nearly half the volume of vehicle control |  |  |  |  |  |  |  |  |  |
| N#Cc1cc(F)c(C(=O)Nc2ccnc(NC(=O)C3C[C@H]3F)c2)c(Cl)c1 (stereo partly drawn) [TC-JL-37] |  |  |  |  |  |  |  | increased apoptosis | increased apoptosis | decreased cell confluence | decreased cell confluence |  |  |  |  |  |
| O=C(NOC[C@H](O)CO)c1ccc(F)c(F)c1Nc1ccc(I)cc1F [mirdametinib] | non-significant trend toward decreased tumor size |  |  |  |  |  | nearly half the volume of vehicle control |  |  |  |  | 1060 | 220 | did not significantly decrease mouse body weight | 220 to 1330 | 1330 |
